Laboratory results from ChEMBL document CHEMBL3987221, “The Australian National University Dept Of Immunology Pathogen Box Compounds Screened” (2018).
Activity calls are given as the source filed them. No rule for the calls is given here.

Experiments:
[1] = biological target: T1, Porphobilinogen deaminase (Homo sapiens) (UniProt P08397); settings: at 100 µM
T1 sequence (whole entry): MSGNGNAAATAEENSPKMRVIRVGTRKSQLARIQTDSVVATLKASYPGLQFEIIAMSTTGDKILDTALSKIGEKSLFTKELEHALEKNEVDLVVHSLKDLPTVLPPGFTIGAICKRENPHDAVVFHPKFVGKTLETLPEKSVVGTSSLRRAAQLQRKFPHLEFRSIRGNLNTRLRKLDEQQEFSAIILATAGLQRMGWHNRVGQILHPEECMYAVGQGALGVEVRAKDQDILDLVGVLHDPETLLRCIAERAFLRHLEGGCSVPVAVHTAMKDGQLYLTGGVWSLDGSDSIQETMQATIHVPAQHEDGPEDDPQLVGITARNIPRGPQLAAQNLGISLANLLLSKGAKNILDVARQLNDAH
Description: Compound was evaluated for the inhibition of human HMBS at 100uM

[2] = biological target: T2, Ferrochelatase, mitochondrial (Homo sapiens) (UniProt P22830); settings: at 10 µM
T2 sequence (whole entry): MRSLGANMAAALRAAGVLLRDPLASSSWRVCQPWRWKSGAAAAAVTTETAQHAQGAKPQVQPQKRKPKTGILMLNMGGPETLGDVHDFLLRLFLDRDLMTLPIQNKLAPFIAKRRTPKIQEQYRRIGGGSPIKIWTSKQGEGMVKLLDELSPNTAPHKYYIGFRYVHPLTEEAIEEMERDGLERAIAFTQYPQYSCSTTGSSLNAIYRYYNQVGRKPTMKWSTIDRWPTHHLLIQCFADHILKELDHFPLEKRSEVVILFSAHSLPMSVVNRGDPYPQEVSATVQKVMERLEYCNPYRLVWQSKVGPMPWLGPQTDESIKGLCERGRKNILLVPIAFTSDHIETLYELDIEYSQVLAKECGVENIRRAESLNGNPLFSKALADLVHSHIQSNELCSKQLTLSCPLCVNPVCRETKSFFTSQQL
Description: Compound was evaluated for the inhibition of human FECH at 10uM

Row | SMILES | inhibition [1] | inhibition [2]
1 | CCN(CC)CCCN1CCN(C(=O)c2cccc(-c3noc(C(F)(F)F)n3)c2)CC1 | inactive | inactive
2 | Cc1cc(OCC(=O)Nc2ccc(C(C)C)cc2)n(C)c(=O)c1C#N | inactive | inactive
3 | Cc1cc(C)n2nc(C(=O)Nc3cc(C(F)(F)F)ccc3N3CCOCC3)nc2n1 | inactive | inactive
4 | N=C(N)c1ccc(OCCCCCOc2ccc(C(=N)N)cc2)cc1 | inactive | inactive
5 | CN1CCN(c2cc(-c3ccc(F)cc3)nc(-c3ccncc3)n2)CC1 | inactive | inactive
6 | COc1cccn2c(C(=O)N3CCCCC3)c(C(F)(F)F)nc12 | inactive | inactive
7 | CS(=O)(=O)Cc1nc2ccccc2oc1=O | inactive | inactive
8 | O=C(Nc1nc(-c2ccccn2)cs1)c1cncn1-c1ccccc1 | inactive | inactive
9 | NC(=O)c1cc(-c2ccsc2)ccc1OCCOc1ccccc1 | inactive | inactive
10 | CCC(C)NC(=O)c1ccc(NC(=O)C2(c3ccccc3)CCCC2)cc1 (stereo not given) | inactive | inactive
11 | COc1ccc(OC(C)C(=O)Nc2ccc(Cl)cc2C)cc1 (stereo not given) | inactive | inactive
12 | CCOC(=O)c1cc(-c2csc(Nc3c(C)cc(C)cc3C)n2)on1 | inactive | inactive
13 | Cc1ccccc1C(=O)N1N=C(Nc2ccccc2)SC1(C)C | inactive | inactive
14 | COc1ccc(-c2nnc3ccc(-c4cccc(C(C)C)c4)cn23)cc1OC | inactive | inactive
15 | O=C(Nc1ccc(C(F)(F)F)c(C(F)(F)F)c1)c1cc(Cl)ccc1O | inactive | inactive
16 | O=C(NCc1nnc2n1CCCCC2)c1ccc(-c2ccc(F)cc2)o1 | inactive | inactive
17 | CC(=O)NCC1CN(c2ccc(-c3ccc(CO)cc3)c(F)c2)C(=O)O1 (stereo not given) | inactive | inactive
18 | Cc1nc(-c2ccccn2)nc(N2CCC(Cc3ccccc3)C2)c1Cl (stereo not given) | inactive | inactive
19 | CN1CCCC1CCO[C@](C)(c1ccccc1)c1ccc(Cl)cc1 (stereo not given in full) | inactive | inactive
20 | Cc1cc(Cl)c(S(=O)(=O)N2CCCC2)cc1OCC(=O)NC1CCCCC1 | inactive | inactive
21 | NCCN(C(=O)c1ccc(Cl)cc1Cl)c1ccc(OCc2ccc(Cl)cc2)cc1 | inactive | inactive
22 | Cc1ccc(S(=O)(=O)N2CCN(C(=O)c3cc(-c4ccccc4)n[nH]3)CC2)cc1 | inactive | inactive
23 | O=C(Nc1ccnc(-c2cccnc2)n1)c1cc(C(F)(F)F)cc(C(F)(F)F)c1 | inactive | inactive
24 | Clc1cccc(C(c2ccc(CN3CCNCC3)cc2)n2ccnc2)c1 (stereo not given) | inactive | inactive
25 | CCCCCCCCCCCCCCCCOP(=O)([O-])OCC[N+](C)(C)C | inactive | inactive
26 | Cc1ccc2cc(C3NC(=O)c4ccccc4N3)c(Cl)nc2c1 (stereo not given) | inactive | inactive
27 | CC(c1cc(Cl)cc(Cl)c1)N(C)c1ncc2c(N)nc(N)nc2n1 (stereo not given) | inactive | inactive
28 | COc1cccc2c(C)nc(N=C(N)N)nc12 | inactive | inactive

Row | SMILES | inhibition [1] | inhibition [2]
29 | CCN(CC)C(=O)N1CCN(C)CC1 | inactive | inactive
30 | O[C@@H](c1cc(C(F)(F)F)nc2c(C(F)(F)F)cccc12)[C@H]1CCCCN1 | inactive | inactive
31 | OC[C@H]1O[C@@H](n2c3ccc(Cl)cc3c3c(-c4cc5ccccc5o4)ncnc32)C(O)[C@H]1O (stereo not given in full) | inactive | inactive
32 | O=C(C1CCN(c2nnc(-n3cccc3)s2)CC1)N1CCC(Cc2ccccc2)CC1 | inactive | inactive
33 | CC(C)n1ncc2c(C(=O)NCC(c3cccs3)N3CCOCC3)cc(-c3ccccc3)nc21 (stereo not given) | inactive | inactive
34 | CNC(=O)C1Cc2c([nH]c3cc(Cl)ccc23)C2(CCN(CCc3ccccc3)CC2)N1 (stereo not given) | inactive | inactive
35 | Cc1cc(O)nc(-n2nc(C)cc2C)n1 | inactive | inactive
36 | O=C(C(Cc1c[nH]c2ccccc12)NS(=O)(=O)c1ccc(Cl)cc1)N1CCCCC1 (stereo not given) | inactive | inactive
37 | CCOC(=O)c1c(NC(=O)c2c(F)c(F)c(F)c(F)c2F)sc(C(N)=O)c1C | inactive | inactive
38 | O=C(OCc1ccccc1)N1CCC(c2cc(-c3ccncc3)c(-c3ccc(F)cc3)[nH]2)CC1 | inactive | inactive
39 | COc1ccc2nc(C)cc(OCC(=O)Nc3ccccc3OC)c2c1 | inactive | inactive
40 | CCC(=O)Nc1ccccc1C(=O)Nc1ccccn1 | inactive | inactive
41 | c1cncc(NCc2ccc(-c3cc4ccncc4cc3OC3CCNCC3)s2)c1 | inactive | inactive
42 | CC(=O)Nc1ccc(-c2noc(CC3CCCN(Cc4cccc(F)c4C)C3)n2)cc1 (stereo not given) | inactive | inactive
43 | CC(C)(C)c1cc(C(=O)N2CCN(c3nccnc3C#N)CC2)n(Cc2ccccc2)n1 | inactive | inactive
44 | O=C(Nc1ccc2c(c1)B(O)OC2)c1ccccc1C(F)(F)F | inactive | inactive
45 | COc1nc2ccc(Br)cc2cc1[C@@H](c1ccccc1)[C@@](O)(CCN(C)C)c1cccc2ccccc12 | inactive | inactive
46 | FC(F)(F)c1nnc2ccc(Cl)nn12 | inactive | inactive
47 | COc1cc(NC(C)CCCN)c2ncccc2c1 (stereo not given) | inactive | inactive
48 | Nc1ncc(Br)cc1-c1nc2cc(Cl)cnc2[nH]1 | inactive | inactive
49 | COc1ccc(-c2nc(-c3cccc(NC(=O)Cc4ccc(F)cc4)c3)no2)cc1OC | inactive | inactive
50 | CCOc1ccc(-c2nc(CNCCc3ccc(F)cc3)cs2)cc1 | inactive | inactive
51 | COc1ccc(C2=NN(C3CCCCCC3)C(=O)C2(C)C)cc1OCc1ccccn1 | inactive | inactive
52 | CCCCOC(=O)Nc1cc2nc(C3CCCCC3)[nH]c2cc1N1CCCC1 | inactive | inactive
53 | CC(C)NCC(=O)Nc1cccc(C(=O)Nc2cccc(C(F)(F)F)c2)c1 | inactive | inactive
54 | COc1ccc2nc(C)cc(OCC(=O)NCc3ccccc3)c2c1 | inactive | inactive
55 | Cc1ncc(-c2ccnc(Nc3ccc(S(C)(=O)=O)cc3)n2)n1C(C)C | inactive | inactive
